Results: US11826373B2, “Methods for treatment of diseases” (Galera Labs, LLC, priority 2011, dated 2023)
Like-named read-outs stand apart in the source and are kept apart here.

Legend:
Solubility (Table 1) = format: physicochemical
[1] = Catalytic rate constant for the dismutation of superoxide; format: biochemical; conditions: pH = 7.4
[2] = Kinetic stability (dissociation of Mn(II) from ligand); format: physicochemical; conditions: second-order rate constant for dissociation of Mn(II) from the ligand, in water
HEK-293 cells = assay: Anti-proliferative activity in vitro; format: cell-based; conditions: 72 hour incubation, LDH assay
Protocol: Materials and Methods: HEK-293 (CRL-1573) cells were obtained from ATCC and cultured according to ATCC instructions. Complete growth medium consisted of RPMI 1640 supplemented to 10% with fetal bovine serum (FBS). All cell incubations were at 37° C. in 95% air: 5% CO2. Two days before the start of a proliferation experiment, 10^3 HEK-293 cells in exponential growth phase were plated into each well of a 96-well plate. To synchronize cell division, the cells were maintained in complete growth medium for 24 hours at which time the cell monolayers were rinsed once with growth medium without FBS and then incubated overnight in media without FBS. The next morning GC4419 or GC4403 in complete growth medium or complete growth medium alone was added. The plates were incubated for 72 hour, after which time cell numbers were determined using an LDH assay kit. “Cell number” on FIG. 3 represents absorbance at 490 nm.

beagle dogs = assay: GC4403 7-day IV toxicity in dog; format: in vivo; conditions: 7 days
Protocol: GC4403 in 26 mM sodium bicarbonate/0.9% sodium chloride was administered to beagle dogs (4/sex/group) IV (slow bolus injection over at least 1 minute) at dosages of 0, 1, 3 or 6 mg/kg/day for 7 days. There was no mortality during the study. […] At 6 mg/kg/day, animals also had tremors, abnormal stance and gait, inability to stand and prostration. Generally, clinical signs had resolved by two hours after dose administration. As the study progressed, some clinical signs (tremors, inability to stand, prostration and abnormal stance and gait) lessened slightly. […] The lower white cell counts correlated with lower absolute neutrophil and eosinophil counts at ≥3 mg/kg/day, which were, however, within the normal historical values for these parameters. At necropsy, there were no changes in organ weights compared to control animals nor were there macroscopic or microscopic changes in any organs with the exception of fibrosis in the heart of one male at 3 mg/kg/day and 1 male at 6 mg/kg/day.

TNF-α = assay: Plasma TNF-α in the collagen induced arthritis model; format: in vivo, Male Lewis rats
Protocol: Male Lewis rats (160-180 g) were used for this study. Collagen induced arthritis (CIA) was induced as follows: Bovine type II collagen (CII; Sigma) was dissolved in 0.1 M acetic acid at 2 mg/mL by stirring overnight at 4 C. Rats were immunized with an emulsion of 2 mg/mL CII in incomplete Freund's adjuvant (IFA; Sigma). The emulsion was prepared by homogenizing one part CII into one part IFA at 4 C. On day 1, rats were injected intradermally at the base of the tail with 100 μL of the emulsion. On day 21, a second injection of CII in IFA was administered at the base of the tail. GC4403 and GC4419 were prepared fresh, dissolved in 26 mM sodium bicarbonate buffered saline (Vehicle). All drugs were given by intraperitoneal injection at 1 mL/kg. Animals were randomly divided into groups (n=10 per group). GC4403 and GC4419 were administered once daily at 2, 5 and 10 mg/kg from days 25 through 35.
TNF-α levels were measured from plasma on day 35. The assay was conducted using a colorimetric ELISA kit (Calbiochem-Novabiochem) having a detection limit of 5 pg/mL. Values were expressed as mean±standard error of the mean of 10 observations. Data sets were examined by one-way ANOVA followed by a Bonferroni post-hoc test for multiple comparisons. A p-value of less than 0.05 was considered significant.

[3] = Human Phase 1 pharmacokinetics of GC4403; format: in vivo; conditions: both sexes, plasma; for AUC(0-t): read-out: AUC0-24 h
Protocol: In a Phase 1 randomized, double-blind, placebo-controlled single rising dose safety, tolerability and pharmacokinetics study, 54 healthy male and female subjects were dosed from 2.2 to 25 mg of GC4403 administered intravenously over 30 minutes. Disposition of GC4403 is multi-exponential and follows linear pharmacokinetics with generally proportional increases in AUC and Cmax with increasing dose over the dose ranges studied. […] GC4403 is excreted unchanged in the urine and accounts for approximately 9 to 17% of the dose administered. No significant cardiovascular or vital sign effects, no significant physical examination abnormalities, and no significant abnormalities in routine clinical laboratory assessments were observed. Facial tingling, generalized tingling, paraesthesias and facial warmth were reported in a dose responsive manner, occurring at the 16.7 and 25 mg GC4403 doses.
As part of the conduct of the Phase 1a clinical studies for GC4403 and GC4419 described in the Examples herein, plasma samples were collected for measuring the concentration of parent compounds (GC4403 and GC4419) after intravenous infusion. Table 3 illustrates the pharmacokinetic parameter, area under the curve (AUC), representing the total exposure of the subject to the drugs over time.

[4] = test system: radiation-induced oral mucositis; assay: Hamster model of radiation-induced oral mucositis; format: in vivo, Male Syrian golden hamsters; conditions: all doses (3-30 mg/kg) administered prior to irradiation
Protocol: GC4403 and GC4419 were studied in a hamster model of oral mucositis (OM). Irradiation of the hamster cheek pouch induces lesions that are histologically similar to OM that which occurs clinically, and develop and resolve at a similar rate to radiation-induced OM in humans. […] The animals received 40 Gy radiation localized to the everted cheek pouch and were evaluated every second day for the development of inflammation at the radiation site. Inflammation was rated on a scale of 0 (normal) to 5 (total ulceration of pouch) by a trained observer, blinded to the treatment protocol.

[5] = 26 mM bicarbonate buffered saline, aqueous buffer, at 25° C., pH 8.3, read-out: Solubility in 26 mM bicarbonate buffered saline
[6] = 2 mg/kg ip once daily days 25 through 35, measured day 35
[7] = 5 mg/kg ip once daily days 25 through 35, measured day 35
[8] = 10 mg/kg ip once daily days 25 through 35, measured day 35

## [Cl][Mn-5]1234([Cl])[n+]5c6cccc5C[NH+]1[C@@H]1CCCC[C@H]1[NH+]2CC[NH+]3[C@@H]1CCCC[C@H]1[NH+]4C6 (stereo partly shown) [GC4403]
Solubility (Table 1); [5]
  solubility: 20 mg/mL
Solubility (Table 1); distilled water, water
  solubility: 30 mg/mL
[1]
  Catalytic rate constant for the dismutation for superoxide (kcat): kcat = 1.2 × 10^+7 M^−1 sec^−1
[2]
  Kinetic Stability (kdiss): kdiss = 0.135 M^−1 s^−1
HEK-293 cells
  proliferation of HEK-293 cells: equivalent dose-dependent decrease
Beagle dogs; dog, 1, 3 or 6 mg/kg/day IV
  mortality: no mortality
Beagle dogs; dog, IV slow bolus injection
  no observed toxic event level (NOTEL): 3 mg/kg/day
Beagle dogs; dog, IV slow bolus, scratching, facial swelling, raised red areas, partial closing of the eyes
  dosage at which clinical signs immediately after dose administration were observed: ≥ 3 mg/kg/day
TNF-α; [6]
  plasma TNF-α production: did not significantly reduce
TNF-α; [7]
  plasma TNF-α production: significantly reduced
TNF-α; [8]
  plasma TNF-α production: significantly reduced
[3]; 2.2 mg IV over 30 minutes
  AUC(0-t): 184 ng·h/mL
[3]; 3.3 mg IV over 30 minutes
  AUC(0-t): 310 ng·h/mL
[3]; 4.9 mg IV over 30 minutes
  AUC(0-t): 453 ng·h/mL
[3]; 7.4 mg IV over 30 minutes
  AUC(0-t): 595 ng·h/mL
[3]; 11.1 mg IV over 30 minutes
  AUC(0-t): 1050 ng·h/mL
[3]; 16.7 mg IV over 30 minutes
  AUC(0-t): 1510 ng·h/mL
[3]; 25 mg IV over 30 minutes
  AUC(0-t): 2560 ng·h/mL
[3]; IV over 30 minutes, read-out: terminal elimination half-life (converted)
  half-life: ~1.5 h

## [Cl][Mn-5]1234([Cl])[n+]5c6cccc5C[NH+]1[C@H]1CCCC[C@@H]1[NH+]2CC[NH+]3[C@H]1CCCC[C@@H]1[NH+]4C6 (stereo partly shown) [GC4419]
Solubility (Table 1); [5]
  solubility: 20 mg/mL
Solubility (Table 1); distilled water, water
  solubility: 30 mg/mL
[1]
  Catalytic rate constant for the dismutation for superoxide (kcat): kcat = 1.2 × 10^+7 M^−1 sec^−1
[2]
  Kinetic Stability (kdiss): kdiss = 0.135 M^−1 s^−1
HEK-293 cells
  proliferation of HEK-293 cells: equivalent dose-dependent decrease
[4]
  development of grade 3 or greater OM: prevented the development of grade 3 or greater OM
TNF-α; [6]
  plasma TNF-α production: did not significantly reduce
TNF-α; [7]
  plasma TNF-α production: significantly reduced
TNF-α; [8]
  plasma TNF-α production: significantly reduced
